Experimental data reported in the supplement of paper PMC6045584.
± gives the standard deviation of the averaged measurements.

Key:
[1] = compound: CN1CCN(c2nc(C3=C(c4c[nH]c5ccccc45)C(=O)NC3=O)c3ccccc3n2)CC1 [SOTRASTAURIN/AEB071]; assay: surviving fraction relative to DMSO-only wells; higher = less growth inhibition; settings: exposure time: 5 days
Procedure, shortened: (§1)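 In 384-well plates, 250–500 log-phase tumour cells per well were given 24 hours before five days of continuous exposure to inhibitors at 0.5, 1, 5, 10, 50, 100, 500 and 1000 nM. Surviving fraction is luminescence from CellTiter-Glo, normalised to the median of wells containing DMSO alone. Reading took place after 10 minutes at room temperature.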

[2] = compound: CCn1c(C(=O)N(C2CC2)C2CC2)cc2c3c(ncn3C)c(Nc3cc(C)n(C)n3)nc21; assay: as above; settings: exposure time: 5 days
Procedure, shortened: as §1

Row | Test System | surviving fraction ([1]; 0.5 nM) | surviving fraction ([1]; 1 nM) | surviving fraction ([1]; 5 nM) | surviving fraction ([1]; 10 nM) | surviving fraction ([1]; 50 nM) | surviving fraction ([1]; 100 nM) | surviving fraction ([1]; 500 nM) | surviving fraction ([1]; 1000 nM) | surviving fraction ([2]; 0.5 nM) | surviving fraction ([2]; 1 nM) | surviving fraction ([2]; 5 nM) | surviving fraction ([2]; 10 nM) | surviving fraction ([2]; 50 nM) | surviving fraction ([2]; 100 nM) | surviving fraction ([2]; 500 nM) | surviving fraction ([2]; 1000 nM)
1 | CCK81 LARGE INTESTINE | 0.811 ± 0.12 | 0.829 ± 0.13 | 0.892 ± 0.075 | 0.814 ± 0.079 | 0.917 ± 0.0085 | 0.866 ± 0.038 | 0.943 ± 0.088 | 0.83 ± 0.064 |  |  |  |  |  |  |  | 
2 | HMT3552 BREAST | 0.982 ± 0.13 | 0.975 ± 0.012 | 0.984 ± 0.037 | 1.04 ± 0.04 | 1.03 ± 0.059 | 1.04 ± 0.013 | 1.3 ± 0.11 | 1.24 ± 0.06 | 0.943 | 0.942 | 1.08 | 1.03 | 1.23 | 1.18 | 1.18 | 1.27
3 | G292 BONE | 1.04 ± 0.016 | 1.002 ± 0.0081 | 1.04 ± 0.057 | 1.01 ± 0.025 | 1.02 ± 0.072 | 0.987 ± 0.077 | 0.969 ± 0.024 | 0.982 ± 0.046 | 0.983 ± 0.044 | 0.978 ± 0.019 | 1.01 ± 0.056 | 1.01 ± 0.038 | 1.03 ± 0.04 | 1.028 ± 0.0063 | 0.952 ± 0.021 | 0.97 ± 0.036
4 | HCC38 BREAST | 0.974 ± 0.11 | 0.913 ± 0.14 | 1.02 ± 0.16 | 1.16 ± 0.23 | 0.851 ± 0.19 | 0.874 ± 0.042 | 0.759 ± 0.11 | 0.805 ± 0.12 | 1.26 ± 0.17 | 1.2 ± 0.084 | 1.28 ± 0.02 | 1.14 ± 0.063 | 1.19 ± 0.11 | 1.23 ± 0.099 | 1.22 ± 0.18 | 1.24 ± 0.17
5 | HS578T BREAST | 0.899 ± 0.11 | 0.861 ± 0.083 | 0.977 ± 0.27 | 0.954 ± 0.11 | 1.06 ± 0.16 | 0.916 ± 0.057 | 0.877 ± 0.064 | 1.01 ± 0.17 | 1.13 ± 0.053 | 0.828 ± 0.05 | 1 ± 0.12 | 1.01 ± 0.15 | 0.821 ± 0.06 | 1.09 ± 0.15 | 0.999 ± 0.049 | 0.989 ± 0.073
6 | HMLE3 BREAST | 1.11 ± 0.098 | 1.1 ± 0.057 | 1.15 ± 0.034 | 1.13 ± 0.061 | 1.12 ± 0.087 | 1.02 ± 0.078 | 0.961 ± 0.12 | 0.831 ± 0.084 | 0.951 ± 0.038 | 0.942 ± 0.037 | 0.977 ± 0.09 | 0.949 ± 0.072 | 0.953 ± 0.088 | 0.956 ± 0.061 | 0.914 ± 0.036 | 0.906 ± 0.056
7 | HS57T BREAST | 1.06 ± 0.044 | 1.08 ± 0.026 | 1.12 ± 0.056 | 1.09 ± 0.063 | 1.03 ± 0.092 | 1.05 ± 0.028 | 1.03 ± 0.031 | 1 ± 0.087 | 0.959 ± 0.063 | 0.892 ± 0.0062 | 1 ± 0.045 | 0.967 ± 0.037 | 1.08 ± 0.055 | 1.01 ± 0.017 | 0.934 ± 0.049 | 0.917 ± 0.055
8 | HCC70 BREAST | 1.17 ± 0.049 | 1.05 ± 0.073 | 1.1 ± 0.046 | 1.14 ± 0.02 | 1.15 ± 0.024 | 1.18 ± 0.038 | 1.25 ± 0.029 | 1.22 ± 0.06 | 0.976 ± 0.033 | 0.984 ± 0.15 | 1.03 ± 0.093 | 0.97 ± 0.041 | 1.055 ± 0.0098 | 1.06 ± 0.055 | 0.939 ± 0.026 | 0.946 ± 0.068
